From patent publication US20120022129A1, “Targeting of Histone Deacetylase 2, Protein Kinase CK2, and Nuclear Factor NRF2 For Treatment of Inflammatory Diseases” (priority 2008, published 2012)

Experiments:
Assay type in all cases: cell-based, human
[1] = tested on: HDAC2; assay: Serine phosphorylation of immunoprecipitated HDAC2 in H292 cells
Description: FIG. 6: CSE induced CK2-dependent HDAC2 phosphorylation in bronchial epithelial and small airway epithelial cells. [A (i)] H292 cells were treated with CSE (2.5%) for 0.5, 1, 2 and 4 h. Immunoprecipitated HDAC2 was analyzed for phosphorylation of serine residues using specific phospho-serine antibodies by SDS polyacrylamide gel. CSE induced significant cyclical phosphorylation of HDAC2 on serine residues at 0.5, 1 and 4 h. [A (ii)] Relative density of phosphor-serine expression normalized to immunoprecipitated HDAC2. [B (i)] […] Immunoprecipitated HDAC2 from whole cell lysates was probed for phosphorylation of serine residues, CSE induced a dose-dependent increase in HDAC2 serine phosphorylation. [B (ii)] Relative density of phospho-serine expression normalized to immunoprecipitated HDAC2. (C) H292 cells were treated with or without specific CK2 inhibitor, TBB. for 1 h, cells were washed with sterile 1×PBS and then treated with freshly prepared CSE (2.5%) for 0.5 h, Immunoprecipitated HDAC2 was assayed for phosphorylation on serine residues. […] (D) Relative density of phosphor-serine expression normalized to immunoprecipitated HDAC2.
FIG. 14: Loss of Serine Sites S^394, S^422, S^424 Abrogates Cigarette Smoke Extract (CSE)-Induced Phosphatase-Independent HDAC2 Phosphorylation. A) Bronchial epithelial H292 cells were transfected with plasmid vector or flag-tagged WT HDAC2 (1-488) for 24 h using lipofectamine 2000 and then treated with or without 2.5% CSE for 0.5 h or B) 50 μM. acrolein for 1 h. Flag-tagged proteins were immunoprecipitated overnight and serine phosphorylation detected by western blots using phospho-serine antibodies. C) Flag-tagged WT HDAC2 was immunoprecipitated from whole cell lysates of H292 cells treated with 2.5% CSE for 0.5 h. Immunoprecipates were then washed and treated with 400 U of λ-phosphatase or buffer alone for 1 h at 30° C. Phosphorylation of serine sites were detected by western blots using anti-serine antibodies. D) H292 cells were transfected with plasmid vector, flag-tagged WT HDAC2 (1-488) or S394A, S394/411/422/424A and 1-400 aa HDAC2 mutants for 24 h with lipofectamine 2000. Cells were then treated with 2.5% CSE for 0.5 h. Serine phosphorylation of immunoprecipitated flag proteins was determined by western blot. E) Phosphatase activity was determined using non-radioactive assay system (Promega). H292 cells were treated with or without 2.5% CSE for 0.5, 2 and 6 h with serine/threonine […] (okadaic acid) used as a positive control. 5 μg protein was incubated with PP2A specific-peptide substrate RRA(pT)VA and reaction buffer for 15 minutes in a 96-well plate. Molybdate dye/additive mixture was added to stop the reaction and color allowed to develop for 15 minutes. Optical density of samples was determined using a microplate reader with a 630 nm filter.
FIG. 18: Protein Kinase CK2 Inhibitors Blocks CSE-Induced HDAC2 Phosphorylation. A) Bronchial epithelial H292 cells transfected with a flag-tagged WT HDAC2 plasmid were treated with 2.5% CSE for 0.5 h. […] B) Relative density of phospho-serine expression normalized to immunoprecipitated HDAC2. Data expressed as mean±SEM (n=3). *** P<0.001, ### P<0.001 significant compared to control treatments.
Cell lysate controls were used.

[2] = tested on: HDAC2; assay: Co-immunoprecipitation of flag-tagged HDAC2 with binding partners in H292 cells; conditions: H292, flag-tagged WT HDAC2
Description: FIG. 16: HDAC2 serine phosphorylation is associated with increased interaction with catalytic subunits of protein kinase CK2 in response to CSE. A) Bronchial epithelial H292 cells transfected with either a control vector (control V) or flag-tagged WT HDAC2 were treated with 2.5% CSE for 0.5 h. […] C) Bronchial epithelial H292 cells transfected with flag-tagged WT HDAC2 were treated with either 2.5% CSE for 0.5 h, 25 or 50 μM Acrolein for 1 h and 200 μM H202 for 0.5 and 2 h respectively.
(§1) A) H292 cells cultured on 8-well chamber slides were treated with 2.5% CSE for 0.5 h or 50 μM Acrolein for 1 h, washed and fixed with 4% PFA. Slides were incubated with HDAC2 and α-tubulin antibodies overnight at […]. Slides were mounted with antifade mounting solution and images analysed by an Olympus inverted microscope. B) H292 cells were transfected with plasmid vector (Ctrl V) or flag-tagged WT HDAC2 (1-488) for 24 h with lipofectamine 2000. Cells were treated with 2.5% CSE for 0.5 h and flag proteins immunoprecipitated using M2 anti-flag antibodies overnight at 4° C. HDAC1 and C) p53 interaction were determined by western blot. D) H292 cells were transfected with plasmid vector (Ctrl V), flag-tagged WT HDAC2 (1-488) or S^394/^411/^422/^424A and 1-400 amino acid HDAC2 mutants for 24 h with lipofectamine 2000. Cells were then exposed to 2.5% CSE for 0.5 h. Levels of HDAC2 interaction with HDAC1 were determined by western blotting using specific antibodies. E) H292 cells were transfected with flag-tagged WT HDAC2 (1-488) for 24 h with lipofectamine 2000. […] Levels of phospho-serine and HDAC2 interaction with SAP30, RbAp46/48, MBD3 and p65 were determined by western blotting using specific antibodies respectively. […] Levels of HDAC1 and p65 binding to immunoprecipitated flag-tagged HDAC2 was determined by western blotting. […] Deacetylase activity of immunoprecipitated HDAC2 was determined using a specific HDAC2 deacetylase activity kit. Data expressed as mean±SEM (n=3). *** P<0.001 significant compared to control treatments.

[3] = tested on: HDAC2; assay: HDAC2 cellular localization in H292 cells (immunofluorescence); conditions: acrolein 50 μM, 1 h
Description: as §1, with “Cells were then exposed to 2.5% CSE for 0.5 h.” left out, “antibodies.” for “antibodies. E) H292 cells were transfected with flag-tagged WT HDAC2 (1-488) for 24 h with lipofectamine 2000.”

[4] = tested on: HDAC2; assay: Deacetylase activity of immunoprecipitated HDAC2 from H292 cells; conditions: NAC 2 mM 2 h, then CSE 2.5% 0.5 h
Description: as §1, with “Cells were then exposed to 2.5% CSE for 0.5 h.” left out, “antibodies.” for “antibodies. E) H292 cells were transfected with flag-tagged WT HDAC2 (1-488) for 24 h with lipofectamine 2000.”

SMILES | serine phosphorylation of flag-tagged full length HDAC2 ([1]; H292, acrolein 50 μM, 1 h) | HDAC2 CK2α′ binding ([2]; acrolein 25 and 50 μM, 1 h) | HDAC2 cellular localization [3] | CSE-induced HDAC2 phosphorylation ([1]; H292, flag-tagged WT HDAC2, NAC 2 mM 2 h, then CSE 2.5% 0.5 h) | HDAC2 interaction with co-repressor proteins (SAP30, MBD3) and p65 ([2]; NAC 2 mM 2 h, then CSE 2.5% 0.5 h) | CSE-induced decrease in HDAC2 deacetylase activity [4]
C=CC=O [acrolein] | significantly phosphorylated on serine residues | increased HDAC2 CK2α′ binding | remained localized to the nucleus |  |  | 
CC(=O)N[C@@H](CS)C(=O)O [NAC, N-acetyl cysteine] |  |  |  | Inhibiting CSE-induced HDAC 2 phosphorylation | blocked HDAC2 interaction with co-repressor proteins | rescued
